Test results taken from patent publication US9624182B2, “Compounds as lysophosphatidic acid receptor antagonists” (Amira Pharmaceuticals, Inc., priority 2009, dated 2017).

What follows are compounds tested against T1, human LPA1 (Homo sapiens, UniProt Q92633) (assay: LPA1 calcium flux assay). Settings: CHO cells expressing human LPA1, stimulated with 10 nM LPA; read-out: HLPA1 Ca Flux IC50.
T1 construct: the full-length cDNA for human LPA1 was obtained by PCR of the reverse transcription reaction; expressed in transfected cells
Type: cell-based
Method in brief: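 CHO cells stably expressing cloned human LPA1, serum-starved overnight, loaded with Calcium 4 dye 1 h at 37 °C in HBSS/20 mM Hepes with 0.3% fatty-acid-free HSA. Compounds preincubated 30 min at room temperature, then cells stimulated with 10 nM LPA; intracellular Ca2+ read by fluorescence. IC50 from titration curves.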

T1 sequence (Q92633 whole entry): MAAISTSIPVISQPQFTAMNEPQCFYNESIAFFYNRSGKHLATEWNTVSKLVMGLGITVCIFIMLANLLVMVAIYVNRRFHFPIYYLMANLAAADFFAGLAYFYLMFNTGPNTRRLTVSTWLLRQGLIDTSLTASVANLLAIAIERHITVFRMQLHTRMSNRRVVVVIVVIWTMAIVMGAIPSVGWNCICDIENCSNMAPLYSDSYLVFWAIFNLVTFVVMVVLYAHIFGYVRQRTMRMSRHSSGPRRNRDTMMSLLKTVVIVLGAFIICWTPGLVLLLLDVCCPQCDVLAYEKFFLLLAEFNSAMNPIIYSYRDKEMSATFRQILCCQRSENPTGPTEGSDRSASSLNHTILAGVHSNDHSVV

Row | IC50 [µM] | Compound
1 | < 0.3 | Cc1noc(-c2ccc(-c3ccc(C4(C(=O)O)CC4)cc3)cc2)c1C=CCC(C)c1ccccc1 (centres unmarked) [Compound 1-110, 1-{4′-[3-Methyl-4-(4-phenyl-pent-1-enyl)-isoxazol-5-yl]-biphenyl-4-yl}-cyclopropanecarboxylic acid]
2 | 1 to 50 | Cc1noc(-c2ccc(-c3ccc(C4(C(=O)O)CC4)cc3)cc2)c1C=CC(C)Cc1ccc(C(C)C)cc1 (centres unmarked) [Compound 1-111, 1-(4′-{4-[4-(4-Isopropyl-phenyl)-3-methyl-but-1-enyl]-3-methyl-isoxazol-5-yl}-biphenyl-4-yl)-cyclopropanecarboxylic acid]
3 | < 0.3 | Cc1noc(-c2ccc(-c3ccc(C4(C(=O)O)CC4)cc3)cc2)c1/C=C\CC(C)c1ccccc1 (centres unmarked) [Compound 1-112, 1-{4′-[3-Methyl-4-((Z)-4-phenyl-pent-1-enyl)-isoxazol-5-yl]-biphenyl-4-yl}-cyclopropanecarboxylic acid]
4 | 1 to 50 | Cc1noc(-c2ccc(-c3ccc(C4(C(=O)O)CC4)cc3)cc2)c1/C=C/CC(C)c1ccccc1 (centres unmarked) [Compound 1-113, 1-{4′-[3-Methyl-4-((E)-4-phenyl-pent-1-enyl)-isoxazol-5-yl]-biphenyl-4-yl}-cyclopropanecarboxylic acid]
5 | < 0.3 | Cc1noc(-c2ccc(-c3ccc(C4(C(=O)O)CC4)cc3)cc2)c1C(O)C/C=C/c1ccccc1 (centres unmarked) [Compound 1-115, 1-{4′-[4-((E)-1-Hydroxy-4-phenyl-but-3-enyl)-3-methyl-isoxazol-5-yl]-biphenyl-4-yl}-cyclopropanecarboxylic acid]
6 | 1 to 50 | Cc1noc(-c2ccc(-c3ccc(C4(C(=O)O)CC4)cc3)cc2)c1CCC(=O)N(C)C(C)(C)c1ccccc1 [Compound 1-118, 1-[4′-(3-Methyl-4-{2-[methyl-(1-methyl-1-phenyl-ethyl)-carbamoyl]-ethyl}-isoxazol-5-yl)-biphenyl-4-yl]-cyclopropanecarboxylic acid]
7 | 0.3 to 1 | Cc1noc(-c2ccc(-c3ccc(C4(C(=O)O)CC4)cc3)cc2)c1CCC(=O)N(C)CC1CC1 [Compound 1-119, 1-(4′-{4-[2-(Cyclopropylmethyl-methyl-carbamoyl)-ethyl]-3-methyl-isoxazol-5-yl}-biphenyl-4-yl)-cyclopropanecarboxylic acid]
8 | 1 to 50 | Cc1noc(-c2ccc(-c3ccc(C4(C(=O)O)CC4)cc3)cc2)c1CSCC(=O)c1ccccc1 [Compound 1-120, 1-{4′-[3-Methyl-4-(2-oxo-2-phenyl-ethylsulfanylmethyl)-isoxazol-5-yl]-biphenyl-4-yl}-cyclopropanecarboxylic acid]
9 | < 0.3 | CCC(C(=O)O)c1ccc(-c2ccc(-c3onc(C)c3CSCCc3ccccc3)cc2)cc1 (centres unmarked) [Compound 1-122, 2-[4′-(3-Methyl-4-phenethylsulfanylmethyl-isoxazol-5-yl)-biphenyl-4-yl]-butyric acid]
10 | < 0.3 | Cc1noc(-c2ccc(-c3ccc(C(C)C(=O)O)cc3)cc2)c1CSCCc1ccccc1 (centres unmarked) [Compound 1-123, 2-[4′-(3-Methyl-4-phenethylsulfanylmethyl-isoxazol-5-yl)-biphenyl-4-yl]-propionic acid]
11 | 1 to 50 | Cc1noc(-c2ccc(-c3ccc(C4(C(=O)O)CC4)cc3)cc2)c1C(=O)CCCc1ccccc1 [Compound 1-124, 1-{4′-[3-Methyl-4-(4-phenyl-butyryl)-isoxazol-5-yl]-biphenyl-4-yl}-cyclopropanecarboxylic acid]
12 | < 0.3 | Cc1noc(-c2ccc(-c3ccc(C4(CC(=O)O)CC4)cc3)cc2)c1CSCCc1ccccc1 [Compound 1-125, {1-[4′-(3-Methyl-4-phenethylsulfanylmethyl-isoxazol-5-yl)-biphenyl-4-yl]-cyclopropyl}-acetic acid]
13 | 1 to 50 | Cc1noc(-c2ccc(-c3ccc(C4(C(=O)O)CC4)cc3)cc2)c1CCC(=O)N(C)C1CC1 [Compound 1-127, 1-(4′-{4-[2-(Cyclopropyl-methyl-carbamoyl)-ethyl]-3-methyl-isoxazol-5-yl}-biphenyl-4-yl)-cyclopropanecarboxylic acid]
14 | < 0.3 | Cc1noc(-c2ccc(-c3ccc(C(C)(C)C(=O)O)cc3)cc2)c1CSCCc1ccccc1 [Compound 1-133, 2-Methyl-2-[4′-(3-methyl-4-phenethylsulfanylmethyl-isoxazol-5-yl)-biphenyl-4-yl]-propionic acid]
15 | < 0.3 | Cc1noc(-c2ccc(-c3ccc(C4(C(=O)O)CC4)cc3)cc2)c1C/C(CCc1ccccc1)=N/O [Compound 1-134, 1-[4′-(4-{2-[Hydroxyimino]-4-phenyl-butyl}-3-methyl-isoxazol-5-yl)-biphenyl-4-yl]-cyclopropanecarboxylic acid]
16 | < 0.3 | Cc1noc(-c2ccc(-c3ccc(C(C)C(=O)O)cc3)cc2)c1CC(F)(F)CCc1ccccc1 (centres unmarked) [Compound 1-136, 2-{4′-[4-(2,2-Difluoro-4-phenyl-butyl)-3-methyl-isoxazol-5-yl]-biphenyl-4-yl}-propionic acid]

Row | IC50 [µM] | Compound
17 | < 0.3 | Cc1noc(-c2ccc(-c3ccc(C(C(=O)O)C(C)C)cc3)cc2)c1CSCCc1ccccc1 (centres unmarked) [Compound 1-137, 3-Methyl-2-[4′-(3-methyl-4-phenethylsulfanylmethyl-isoxazol-5-yl)-biphenyl-4-yl]-butyric acid]
18 | 1 to 50 | CC(=O)N(Cc1ccccc1)CC(O)Cc1c(C)noc1-c1ccc(-c2ccc(C3(C(=O)O)CC3)cc2)cc1 (centres unmarked) [Compound 1-138, 1-(4′-{4-[3-(Acetyl-benzyl-amino)-2-hydroxy-propyl]-3-methyl-isoxazol-5-yl}-biphenyl-4-yl)-cyclopropanecarboxylic acid]
19 | < 0.3 | Cc1noc(-c2ccc(-c3ccc(C4(C(=O)O)CC4)cc3)cc2)c1/C=C/CN(Cc1ccccc1)S(C)(=O)=O [Compound 1-139, 1-(4′-{4-[3-(Benzyl-methanesulfonyl-amino)-propenyl]-3-methyl-isoxazol-5-yl}-biphenyl-4-yl)-cyclopropanecarboxylic acid]
20 | < 0.3 | Cc1noc(-c2ccc(-c3ccc(C4(CC(=O)O)CC4)cc3)cc2)c1C(O)CCCc1ccccc1 (centres unmarked) [Compound 1-140, (1-{4′-[4-(1-Hydroxy-4-phenyl-butyl)-3-methyl-isoxazol-5-yl]-biphenyl-4-yl}-cyclopropyl)-acetic acid]
21 | 1 to 50 | CC(=O)N(CCc1c(C)noc1-c1ccc(-c2ccc(C3(C(=O)O)CC3)cc2)cc1)Cc1ccccc1 [Compound 1-142, 1-(4′-{4-[2-(Acetyl-benzyl-amino)-ethyl]-3-methyl-isoxazol-5-yl}-biphenyl-4-yl)-cyclopropanecarboxylic acid]
22 | 1 to 50 | Cc1noc(-c2ccc(-c3ccc(C4(C(=O)O)CC4)cc3)cc2)c1CCN(Cc1ccccc1)S(C)(=O)=O [Compound 1-143, 1-(4′-{4-[2-(Benzyl-methanesulfonyl-amino)-ethyl]-3-methyl-isoxazol-5-yl}-biphenyl-4-yl)-cyclopropanecarboxylic acid]
23 | < 0.3 | Cc1noc(-c2ccc(-c3ccc(C(Cc4ccccc4)C(=O)O)cc3)cc2)c1CSCCc1ccccc1 (centres unmarked) [Compound 1-145, 2-[4′-(3-Methyl-4-phenethylsulfanylmethyl-isoxazol-5-yl)-biphenyl-4-yl]-3-phenyl-propionic acid]
24 | 0.3 to 1 | CCOC(CCCc1ccccc1)c1c(C)noc1-c1ccc(-c2ccc(C3(C(=O)O)CC3)cc2)cc1 (centres unmarked) [Compound 1-147, 1-{4′-[4-(1-Ethoxy-4-phenyl-butyl)-3-methyl-isoxazol-5-yl]-biphenyl-4-yl}-cyclopropanecarboxylic acid]
25 | < 0.3 | COC(CCCc1ccccc1)c1c(C)noc1-c1ccc(-c2ccc(C3(C(=O)O)CC3)cc2)cc1 (centres unmarked) [Compound 1-148, 1-{4′-[4-(1-Methoxy-4-phenyl-butyl)-3-methyl-isoxazol-5-yl]-biphenyl-4-yl}-cyclopropanecarboxylic acid]
26 | 0.3 to 1 | Cc1noc(-c2ccc(-c3ccc(C4(C(=O)O)CC4)cc3)cc2)c1NCCC(C)(C)C [Compound 1-151, 1-{4′-[4-(3,3-Dimethyl-butylamino)-3-methyl-isoxazol-5-yl]-biphenyl-4-yl}-cyclopropanecarboxylic acid]
27 | 1 to 50 | Cc1noc(-c2ccc(-c3ccc(C4(C(=O)O)CC4)cc3)cc2)c1CO [Compound 1-152, 1-[4′-(4-Hydroxymethyl-3-methyl-isoxazol-5-yl)-biphenyl-4-yl]-cyclopropanecarboxylic acid]
28 | 1 to 50 | Cc1noc(-c2ccc(-c3ccc(C4(C(=O)O)CC4)cc3)cc2)c1C(=O)CCc1ccccc1 [Compound 1-157, 1-{4′-[3-Methyl-4-(3-phenyl-propionyl)-isoxazol-5-yl]-biphenyl-4-yl}-cyclopropanecarboxylic acid]
29 | < 0.3 | Cc1noc(-c2ccc(-c3ccc(C4(C(=O)O)CC4)cc3)cc2)c1C(O)/C=C/c1ccccc1 (centres unmarked) [Compound 1-158, 1-{4′-[4-((E)-1-Hydroxy-3-phenyl-allyl)-3-methyl-isoxazol-5-yl]-biphenyl-4-yl}-cyclopropanecarboxylic acid]
30 | 1 to 50 | Cc1noc(-c2ccc(-c3ccc(C4(C(=O)O)CC4)cc3)cc2)c1C(=O)CCc1cccc(C(F)(F)F)c1 [Compound 1-160, 1-(4′-{3-Methyl-4-[3-(3-trifluoromethyl-phenyl)-propionyl]-isoxazol-5-yl}-biphenyl-4-yl)-cyclopropanecarboxylic acid]
31 | < 0.3 | Cc1noc(-c2ccc(-c3ccc(C4(C(=O)O)CC4)cc3)cc2)c1C(O)/C=C/c1cccc(C(F)(F)F)c1 (centres unmarked) [Compound 1-161, 1-(4′-{4-[(E)-1-Hydroxy-3-(3-trifluoromethyl-phenyl)-allyl]-3-methyl-isoxazol-5-yl}-biphenyl-4-yl)-cyclopropanecarboxylic acid]
32 | < 0.3 | Cc1noc(-c2ccc(-c3ccc(CC(=O)O)cc3)cc2)c1NC(C)CCc1cccc(F)c1 (centres unmarked) [Compound 1-165, (4′-{4-[3-(3-Fluoro-phenyl)-1-methyl-propylamino]-3-methyl-isoxazol-5-yl}-biphenyl-4-yl)-acetic acid]
